Several values for one entry are separate records, joined by “and”; a condition that tells them apart may be missing. Identical values can stand only once. Toxic doses and inconclusive results are not listed. Residues, ends and D or L forms follow the SMILES beside them. *: point of attachment. Cbz = O=C(OCc1ccccc1)*
System: BDF1 mice, P388 leukemia ip, median survival T/C
Assay: NCI In Vivo Anticancer Drug Screen. Data for tumor model P388 Leukemia (intraperitoneal) in B6D2F1 (BDF1) mice
Conditions: endpoint: median survival time, higher = longer survival
Outline: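 Each value expresses how treatment altered survival: treated-mouse outcome over vehicle-mouse outcome, both groups bearing the transplanted tumour.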

[1] = dose: 25.0 mg/kg/injection, schedule: Q01DX009 (ip), vehicle: Klucel (hydroxypropylcellulose) (HPC)
[2] = dose: 12.5 mg/kg/injection, schedule: Q01DX009 (ip), vehicle: saline with Tween-80
[3] = dose: 25.0 mg/kg/injection, schedule: Q01DX009 (ip), vehicle: saline with Tween-80
[4] = dose: 50.0 mg/kg/injection, schedule: Q01DX009 (ip), vehicle: saline with Tween-80
[5] = dose: 50.0 mg/kg/injection, schedule: Q04DX003 (ip), vehicle: saline with Tween-80
[6] = dose: 100.0 mg/kg/injection, schedule: Q01DX009 (ip), vehicle: saline with Tween-80
[7] = dose: 100.0 mg/kg/injection, schedule: Q04DX003 (ip), vehicle: saline with Tween-80
[8] = dose: 200.0 mg/kg/injection, schedule: Q01DX009 (ip), vehicle: saline with Tween-80
[9] = dose: 200.0 mg/kg/injection, schedule: Q04DX003 (ip), vehicle: saline with Tween-80
[10] = dose: 400.0 mg/kg/injection, schedule: Q01DX009 (ip), vehicle: saline with Tween-80
[11] = dose: 400.0 mg/kg/injection, schedule: Q04DX003 (ip), vehicle: saline with Tween-80

## CN=C(N)Nc1ccc(C(=O)Oc2ccc([N+](=O)[O-])cc2)cc1
dose: 12.5 mg/kg/injection, schedule: Q01DX009 (ip), vehicle: water
  T/C: 89 % of control
dose: 25.0 mg/kg/injection, schedule: Q01DX009 (ip), vehicle: water
  T/C: 95 % of control
dose: 50.0 mg/kg/injection, schedule: Q01DX009 (ip), vehicle: water
  T/C: 87 % of control
dose: 50.0 mg/kg/injection, schedule: Q04DX003 (ip), vehicle: water
  T/C: 122 % of control
dose: 100.0 mg/kg/injection, schedule: Q04DX003 (ip), vehicle: water
  T/C: 110 % of control
dose: 200.0 mg/kg/injection, schedule: Q01DX009 (ip), vehicle: water
  T/C: 105 % of control
dose: 200.0 mg/kg/injection, schedule: Q04DX003 (ip), vehicle: water
  T/C: 113 % of control

## BrCc1ccc(CBr)c(Br)c1
dose: 6.0 mg/kg/injection, schedule: Q01DX009 (ip), vehicle: Klucel (hydroxypropylcellulose) (HPC)
  T/C: 89 % of control
dose: 6.25 mg/kg/injection, schedule: Q04DX003 (ip), vehicle: Klucel (hydroxypropylcellulose) (HPC)
  T/C: 92 % of control
dose: 12.0 mg/kg/injection, schedule: Q01DX009 (ip), vehicle: Klucel (hydroxypropylcellulose) (HPC)
  T/C: 103 % of control
dose: 12.5 mg/kg/injection, schedule: Q04DX003 (ip), vehicle: Klucel (hydroxypropylcellulose) (HPC)
  T/C: 96 % of control
[1]
  T/C: 96 % of control
dose: 25.0 mg/kg/injection, schedule: Q04DX003 (ip), vehicle: Klucel (hydroxypropylcellulose) (HPC)
  T/C: 100 % of control

## O=C(O)C1CCCN1C(=O)C1CCCN1C(=O)OCc1ccccc1 (stereo not drawn) (Cbz-Pro-Pro-OH; configuration not given here)
dose: 50.0 mg/kg/injection, schedule: Q01DX005 (ip), vehicle: saline
  T/C: 101 % of control
dose: 100.0 mg/kg/injection, schedule: Q01DX005 (ip), vehicle: saline
  T/C: 101 % of control
dose: 200.0 mg/kg/injection, schedule: Q01DX005 (ip), vehicle: saline
  T/C: 107 % of control

## Cc1ccc(S(=O)(=O)N(C)c2ccc(I)c(Cl)c2Cl)cc1
dose: 100.0 mg/kg/injection, schedule: Q04DX003 (ip), vehicle: Klucel (hydroxypropylcellulose) (HPC)
  T/C: 100 % of control
dose: 200.0 mg/kg/injection, schedule: Q04DX003 (ip), vehicle: Klucel (hydroxypropylcellulose) (HPC)
  T/C: 90 % of control
dose: 400.0 mg/kg/injection, schedule: Q04DX003 (ip), vehicle: Klucel (hydroxypropylcellulose) (HPC)
  T/C: 90 % of control

## CN1C(=O)N(C)C(=O)C(C)(C2(C)C(=O)N(C)C(=O)N(C)C2=O)C1=O
dose: 100.0 mg/kg/injection, schedule: Q01DX001 (ip), vehicle: saline with Tween-80
  T/C: 100 % of control
dose: 200.0 mg/kg/injection, schedule: Q01DX001 (ip), vehicle: saline with Tween-80
  T/C: 99 % of control
dose: 400.0 mg/kg/injection, schedule: Q01DX001 (ip), vehicle: saline with Tween-80
  T/C: 90 % of control

## Cc1ccc(N2CCN(CCCN3CCN(c4ccccc4Cl)CC3)CC2)cc1
dose: 6.25 mg/kg/injection, schedule: Q01DX009 (ip), vehicle: saline with Tween-80
  T/C: 86 % of control
dose: 6.25 mg/kg/injection, schedule: Q04DX003 (ip), vehicle: saline
  T/C: 104 % of control
[2]
  T/C: 95 % of control
dose: 12.5 mg/kg/injection, schedule: Q04DX003 (ip), vehicle: saline
  T/C: 100 % of control
[3]
  T/C: 100 % of control
dose: 25.0 mg/kg/injection, schedule: Q04DX003 (ip), vehicle: saline
  T/C: 104 % of control

## COc1cc(/C=N\NC(=O)CC#N)cc(OC)c1OC
[4]
  T/C: 90 % of control
[5]
  T/C: 95 % of control
[6]
  T/C: 104 % of control
[7]
  T/C: 95 % of control
[8]
  T/C: 100 % of control
[9]
  T/C: 95 % of control

## CC(=O)[C@H]1CC[C@H]2[C@@H]3CCC4=CC(=O)CC[C@]4(C)[C@H]3CC[C@]12C
dose: 100.0 mg/kg/injection, schedule: Q01DX009 (sc), vehicle: steriod suspending solution
  T/C: 104 % of control
dose: 100.0 mg/kg/injection, schedule: Q04DX003 (sc), vehicle: steriod suspending solution
  T/C: 100 % of control
dose: 200.0 mg/kg/injection, schedule: Q01DX009 (sc), vehicle: steriod suspending solution
  T/C: 87 % of control
dose: 200.0 mg/kg/injection, schedule: Q04DX003 (sc), vehicle: steriod suspending solution
  T/C: 105 % of control
dose: 400.0 mg/kg/injection, schedule: Q01DX009 (sc), vehicle: steriod suspending solution
  T/C: 87 % of control
dose: 400.0 mg/kg/injection, schedule: Q04DX003 (sc), vehicle: steriod suspending solution
  T/C: 110 % of control

## C1CSCCSCCCSCCSC1
[3]
  T/C: 98 % of control
[4]
  T/C: 102 % of control
[6]
  T/C: 118 % of control

## CCCCCCC(=O)/C=C/c1ccc(OC)cc1
[4]
  T/C: 94 % of control
[6]
  T/C: 103 % of control
[8]
  T/C: 90 % of control

## CC(C)C1=CC2=CC(=O)C3C(C)(C)CCCC3(C)C2=C(O)C1=O (stereo not given)
dose: 2.0 mg/kg/injection, schedule: Q01DX010 (ip), vehicle: carboxymethylcellulose (CMC)
  T/C: 105 % of control
dose: 5.0 mg/kg/injection, schedule: Q01DX010 (ip), vehicle: carboxymethylcellulose (CMC)
  T/C: 105 % of control
dose: 5.0 mg/kg/injection, schedule: Q01DX010 (ip), vehicle: other
  T/C: 115 % of control
dose: 10.0 mg/kg/injection, schedule: Q01DX010 (ip), vehicle: carboxymethylcellulose (CMC)
  T/C: 100 % of control
dose: 10.0 mg/kg/injection, schedule: Q01DX010 (ip), vehicle: other
  T/C: 115 % of control
dose: 20.0 mg/kg/injection, schedule: Q01DX010 (ip), vehicle: carboxymethylcellulose (CMC)
  T/C: 120 % of control

## Brc1cnc(OCc2ccccc2)nc1OCc1ccccc1
[6]
  T/C: 103 % of control
[7]
  T/C: 104 % of control
[8]
  T/C: 103 % of control
[9]
  T/C: 104 % of control
[10]
  T/C: 107 % of control
[11]
  T/C: 108 % of control

## CCCCCCCCCCCCCCCCCOC(=O)CCCCCCCCCCCCCCCCC
dose: 25.0 mg/kg/injection, schedule: Q04DX003 (ip), vehicle: saline with Tween-80
  T/C: 105 % of control
[5]
  T/C: 105 % of control
[7]
  T/C: 100 % of control

## O=C1CC(c2ccc([N+](=O)[O-])cc2)=Nc2ccccc2N1
[7]
  T/C: 109 % of control
[9]
  T/C: 104 % of control
[11]
  T/C: 114 % of control

## O=C(c1cccs1)c1cccs1
[4]
  T/C: 101 % of control
[6]
  T/C: 108 % of control
[7]
  T/C: 102 % of control
[8]
  T/C: 92 % of control
[9]
  T/C: 90 % of control
[10]
  T/C: 99 % of control
[11]
  T/C: 112 % of control

## N#CC1c2ccccc2C=NN1C(=O)N(c1ccccc1)c1ccccc1 (stereo not given)
dose: 100.0 mg/kg/injection, schedule: Q04DX003 (ip), vehicle: other
  T/C: 90 % of control
dose: 200.0 mg/kg/injection, schedule: Q04DX003 (ip), vehicle: other
  T/C: 100 % of control
dose: 400.0 mg/kg/injection, schedule: Q04DX003 (ip), vehicle: other
  T/C: 100 % of control

## COc1cc(OC)c(OC)cc1/C=C/c1cc[n+](C)c2ccccc12
dose: 6.25 mg/kg/injection, schedule: Q01DX009 (ip), vehicle: saline
  T/C: 111 % of control
dose: 12.5 mg/kg/injection, schedule: Q01DX009 (ip), vehicle: saline
  T/C: 119 % of control
dose: 16.0 mg/kg/injection, schedule: Q01DX009 (ip), vehicle: saline
  T/C: 111 % of control
dose: 35.0 mg/kg/injection, schedule: Q01DX009 (ip), vehicle: saline
  T/C: 119 % of control

## Cc1ccc(C[n+]2cccc3c([N+](=O)[O-])cccc32)cc1
[2]
  T/C: 108 % of control
[3]
  T/C: 103 % of control
[4]
  T/C: 113 % of control

## CCS(=O)(=O)C(Br)CBr (stereo not given)
[1]
  T/C: 114 % of control
dose: 50.0 mg/kg/injection, schedule: Q01DX009 (ip), vehicle: Klucel (hydroxypropylcellulose) (HPC)
  T/C: 114 % of control
dose: 100.0 mg/kg/injection, schedule: Q01DX009 (ip), vehicle: Klucel (hydroxypropylcellulose) (HPC)
  T/C: 105 % of control and 107 % of control

## CC1(C)N=C(N)N=C(N)N1c1ccc(OCC(=O)N2CCOCC2)c(Cl)c1
dose: 66.0 mg/kg/injection, schedule: Q01DX009 (ip), vehicle: saline
  T/C: 107 % of control
dose: 100.0 mg/kg/injection, schedule: Q01DX009 (ip), vehicle: saline sonified
  T/C: 172 % of control
dose: 100.0 mg/kg/injection, schedule: Q01DX009 (ip), vehicle: saline
  T/C: 103 % of control
dose: 150.0 mg/kg/injection, schedule: Q01DX009 (ip), vehicle: saline
  T/C: 111 % of control

## O=[N+]([O-])c1ccc(N2CCN(c3ccccc3)CC2)c2c1no[n+]2[O-]
dose: 75.0 mg/kg/injection, schedule: Q04DX003 (ip), vehicle: saline with Tween-80
  T/C: 108 % of control
dose: 150.0 mg/kg/injection, schedule: Q04DX003 (ip), vehicle: saline with Tween-80
  T/C: 111 % of control
